Laboratory results as given in PubChem BioAssay AID1963451 (Molecular Pharmacology Branch, DTP, NCI, 2024).
Each block holds one compound with its values, some of them ahead of it.

Tested on: 521955-158-R6-J3-PDC complex spheroid growth, % test/control
Experiment: Anticancer human tumor 521955-158-R6-J3-PDC patient-derived pancreatic carcinoma cell line growth inhibition [Asc]
Details: for IC50: curve of first compound; for viability, T/C: stronger effect = lower value
How it was run: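 Complex spheroids combining tumor cells with HUVEC endothelial cells and human MSCs, at 37 degrees C, 5% CO2; agents tested alone or combined, half-log dilutions from at or near clinical Cmax, or 10 microM if Cmax unknown.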

[1] = second compound 0.0316 µM, first compound 0.0316 µM
[2] = second compound 0.0316 µM, first compound 0.1 µM
[3] = second compound 0.0316 µM, first compound 0.316 µM
[4] = second compound 0.0316 µM, first compound 1 µM
[5] = second compound 0.0316 µM, first compound 3.16 µM
[6] = second compound 0.0316 µM, first compound 10 µM
[7] = second compound 0.1 µM, first compound 0.0316 µM
[8] = second compound 0.1 µM, first compound 0.1 µM
[9] = second compound 0.1 µM, first compound 0.316 µM
[10] = second compound 0.1 µM, first compound 1 µM
[11] = second compound 0.1 µM, first compound 3.16 µM
[12] = second compound 0.1 µM, first compound 10 µM
[13] = second compound 0.316 µM, first compound 0.0316 µM
[14] = second compound 0.316 µM, first compound 0.1 µM
[15] = second compound 0.316 µM, first compound 0.316 µM
[16] = second compound 0.316 µM, first compound 1 µM
[17] = second compound 0.316 µM, first compound 3.16 µM
[18] = second compound 0.316 µM, first compound 10 µM
[19] = second compound 1 µM, first compound 0.0316 µM
[20] = second compound 1 µM, first compound 0.1 µM
[21] = second compound 1 µM, first compound 0.316 µM
[22] = second compound 1 µM, first compound 1 µM
[23] = second compound 1 µM, first compound 3.16 µM
[24] = second compound 1 µM, first compound 10 µM
[25] = second compound 3.16 µM, first compound 0.0316 µM
[26] = second compound 3.16 µM, first compound 0.1 µM
[27] = second compound 3.16 µM, first compound 0.316 µM
[28] = second compound 3.16 µM, first compound 1 µM
[29] = second compound 3.16 µM, first compound 3.16 µM
[30] = second compound 3.16 µM, first compound 10 µM
[31] = second compound 10 µM, first compound 0.0316 µM
[32] = second compound 10 µM, first compound 0.1 µM
[33] = second compound 10 µM, first compound 0.316 µM
[34] = second compound 10 µM, first compound 1 µM
[35] = second compound 10 µM, first compound 3.16 µM
[36] = second compound 10 µM, first compound 10 µM
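Note: spheroids exposed to compounds for 7 days.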
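Throughout, for viability, T/C: 100% = DMSO vehicle control wells.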

IC50 (second compound 0.0316 µM): 3740 nM | IC50 (second compound 0.1 µM): 1000 nM | IC50 (second compound 0.316 µM): 111 nM | IC50 (second compound 1 µM): < 31.6 nM | IC50 (second compound 3.16 µM): < 31.6 nM | IC50 (second compound 10 µM): < 31.6 nM
Compound: C=C(F)C(=O)N1CCN(c2nc(OCC3CCCN3C)nc3c2CCN(c2cccc4cccc(Cl)c24)C3)CC1CC#N (stereo unspecified) + Cc1c(S(C)(=O)=O)c(-c2cc(F)cc(N3CCN(c4ccc(NS(=O)(=O)c5ccc(NC(CCN6CCC(C(=O)OCCCP(=O)(O)O)CC6)CSc6ccccc6)c(S(=O)(=O)C(F)(F)F)c5)cc4)CC3)c2)c(-c2ccc(Cl)cc2)n1C(C)C
viability, T/C [1]: 79.3% | viability, T/C [2]: 79.6% | viability, T/C [3]: 73.5% | viability, T/C [4]: 73.3% | viability, T/C [5]: 59.1% | viability, T/C [6]: 0.31% | viability, T/C [7]: 80.3% | viability, T/C [8]: 65.3% | viability, T/C [9]: 58.5% | viability, T/C [10]: 47.1% | viability, T/C [11]: 39.6% | viability, T/C [12]: 0.27% | viability, T/C [13]: 57.9% | viability, T/C [14]: 49.6% | viability, T/C [15]: 37.9% | viability, T/C [16]: 36.9% | viability, T/C [17]: 23.3% | viability, T/C [18]: 0.26% | viability, T/C [19]: 40.1% | viability, T/C [20]: 34.3% | viability, T/C [21]: 28.4% | viability, T/C [22]: 17.8% | viability, T/C [23]: 8.04% | viability, T/C [24]: 0.21% | viability, T/C [25]: 18.4% | viability, T/C [26]: 16.9% | viability, T/C [27]: 15.8% | viability, T/C [28]: 10% | viability, T/C [29]: 0.82% | viability, T/C [30]: 0.2% | viability, T/C [31]: 13.4% | viability, T/C [32]: 18.4% | viability, T/C [33]: 21.8% | viability, T/C [34]: 9.59% | viability, T/C [35]: 0.77% | viability, T/C [36]: 0.15%

IC50 (second compound 0.0316 µM): > 10000 nM | IC50 (second compound 0.1 µM): > 10000 nM | IC50 (second compound 0.316 µM): < 31.6 nM | IC50 (second compound 1 µM): < 31.6 nM | IC50 (second compound 3.16 µM): < 31.6 nM | IC50 (second compound 10 µM): < 31.6 nM
Compound: C=CC(=O)N1CCN(c2nc(=O)n(-c3c(C)ccnc3C(C)C)c3nc(-c4c(O)cccc4F)c(F)cc23)C(C)C1 (stereo unspecified) + Cc1c(S(C)(=O)=O)c(-c2cc(F)cc(N3CCN(c4ccc(NS(=O)(=O)c5ccc(NC(CCN6CCC(C(=O)OCCCP(=O)(O)O)CC6)CSc6ccccc6)c(S(=O)(=O)C(F)(F)F)c5)cc4)CC3)c2)c(-c2ccc(Cl)cc2)n1C(C)C
viability, T/C [1]: 84.4% | viability, T/C [2]: 84% | viability, T/C [3]: 84.6% | viability, T/C [4]: 80.3% | viability, T/C [5]: 79.7% | viability, T/C [6]: 79.7% | viability, T/C [7]: 72.2% | viability, T/C [8]: 72.3% | viability, T/C [9]: 67.6% | viability, T/C [10]: 68.4% | viability, T/C [11]: 59.6% | viability, T/C [12]: 50.7% | viability, T/C [13]: 47.8% | viability, T/C [14]: 48.4% | viability, T/C [15]: 42.5% | viability, T/C [16]: 46.3% | viability, T/C [17]: 38.3% | viability, T/C [18]: 29.2% | viability, T/C [19]: 45.6% | viability, T/C [20]: 36.8% | viability, T/C [21]: 41.8% | viability, T/C [22]: 33.7% | viability, T/C [23]: 23.6% | viability, T/C [24]: 19.8% | viability, T/C [25]: 23.1% | viability, T/C [26]: 22.8% | viability, T/C [27]: 17.4% | viability, T/C [28]: 15.6% | viability, T/C [29]: 12.6% | viability, T/C [30]: 7.39% | viability, T/C [31]: 12.7% | viability, T/C [32]: 9.59% | viability, T/C [33]: 12.5% | viability, T/C [34]: 9.66% | viability, T/C [35]: 23.2% | viability, T/C [36]: 8.51%

IC50 (second compound 0.0316 µM): > 3000 nM | IC50 (second compound 0.1 µM): > 3000 nM | IC50 (second compound 0.316 µM): < 9.49 nM | IC50 (second compound 1 µM): < 9.49 nM | IC50 (second compound 3.16 µM): < 9.49 nM | IC50 (second compound 10 µM): < 9.49 nM
Compound: CCN1C(C(=O)NC23CCC(C(=O)O)(CC2)CC3)C(c2cccc(Cl)c2F)C2(C(=O)Nc3cc(Cl)ccc32)C12CCCCC2 (stereo unspecified) + Cc1c(S(C)(=O)=O)c(-c2cc(F)cc(N3CCN(c4ccc(NS(=O)(=O)c5ccc(NC(CCN6CCC(C(=O)OCCCP(=O)(O)O)CC6)CSc6ccccc6)c(S(=O)(=O)C(F)(F)F)c5)cc4)CC3)c2)c(-c2ccc(Cl)cc2)n1C(C)C
viability, T/C (second compound 0.0316 µM, first compound 0.00949 µM): 102% | viability, T/C (second compound 0.0316 µM, first compound 0.03 µM): 78.8% | viability, T/C (second compound 0.0316 µM, first compound 0.0949 µM): 72.6% | viability, T/C (second compound 0.0316 µM, first compound 0.3 µM): 70.7% | viability, T/C (second compound 0.0316 µM, first compound 0.949 µM): 84.2% | viability, T/C (second compound 0.0316 µM, first compound 3 µM): 73.2% | viability, T/C (second compound 0.1 µM, first compound 0.00949 µM): 77.7% | viability, T/C (second compound 0.1 µM, first compound 0.03 µM): 75.7% | viability, T/C (second compound 0.1 µM, first compound 0.0949 µM): 67.4% | viability, T/C (second compound 0.1 µM, first compound 0.3 µM): 66.5% | viability, T/C (second compound 0.1 µM, first compound 0.949 µM): 69.4% | viability, T/C (second compound 0.1 µM, first compound 3 µM): 50.8% | viability, T/C (second compound 0.316 µM, first compound 0.00949 µM): 49.2% | viability, T/C (second compound 0.316 µM, first compound 0.03 µM): 51.8% | viability, T/C (second compound 0.316 µM, first compound 0.0949 µM): 44% | viability, T/C (second compound 0.316 µM, first compound 0.3 µM): 45.4% | viability, T/C (second compound 0.316 µM, first compound 0.949 µM): 41.2% | viability, T/C (second compound 0.316 µM, first compound 3 µM): 31.7% | viability, T/C (second compound 1 µM, first compound 0.00949 µM): 41.2% | viability, T/C (second compound 1 µM, first compound 0.03 µM): 25.7% | viability, T/C (second compound 1 µM, first compound 0.0949 µM): 39.5% | viability, T/C (second compound 1 µM, first compound 0.3 µM): 35% | viability, T/C (second compound 1 µM, first compound 0.949 µM): 30.6% | viability, T/C (second compound 1 µM, first compound 3 µM): 25.2% | viability, T/C (second compound 3.16 µM, first compound 0.00949 µM): 19.7% | viability, T/C (second compound 3.16 µM, first compound 0.03 µM): 17.3% | viability, T/C (second compound 3.16 µM, first compound 0.0949 µM): 17.5% | viability, T/C (second compound 3.16 µM, first compound 0.3 µM): 14.9% | viability, T/C (second compound 3.16 µM, first compound 0.949 µM): 13.9% | viability, T/C (second compound 3.16 µM, first compound 3 µM): 9.12% | viability, T/C (second compound 10 µM, first compound 0.00949 µM): 14.6% | viability, T/C (second compound 10 µM, first compound 0.03 µM): 11.3% | viability, T/C (second compound 10 µM, first compound 0.0949 µM): 15.8% | viability, T/C (second compound 10 µM, first compound 0.3 µM): 9.21% | viability, T/C (second compound 10 µM, first compound 0.949 µM): 18.1% | viability, T/C (second compound 10 µM, first compound 3 µM): 1.44%
